According to ChEMBL document CHEMBL1157736, “2,3-Diaminopyrazines as Rho kinase inhibitors” (Bioorg Med Chem Lett, 2010):

Experiments:
[1] = biological target: Rho-associated protein kinase 1 (Homo sapiens, UniProt Q13464); test: Inhibition of human recombinant ROCK1
[2] = biological target: Rho-associated protein kinase 2 (Homo sapiens, UniProt O75116); test: Inhibition of human recombinant ROCK2
[3] = biological target: T1, Cytochrome P450 1A2 (Homo sapiens, UniProt P05177); test: Inhibition of CYP1A2; type: ADME
T1 sequence (P05177 whole entry): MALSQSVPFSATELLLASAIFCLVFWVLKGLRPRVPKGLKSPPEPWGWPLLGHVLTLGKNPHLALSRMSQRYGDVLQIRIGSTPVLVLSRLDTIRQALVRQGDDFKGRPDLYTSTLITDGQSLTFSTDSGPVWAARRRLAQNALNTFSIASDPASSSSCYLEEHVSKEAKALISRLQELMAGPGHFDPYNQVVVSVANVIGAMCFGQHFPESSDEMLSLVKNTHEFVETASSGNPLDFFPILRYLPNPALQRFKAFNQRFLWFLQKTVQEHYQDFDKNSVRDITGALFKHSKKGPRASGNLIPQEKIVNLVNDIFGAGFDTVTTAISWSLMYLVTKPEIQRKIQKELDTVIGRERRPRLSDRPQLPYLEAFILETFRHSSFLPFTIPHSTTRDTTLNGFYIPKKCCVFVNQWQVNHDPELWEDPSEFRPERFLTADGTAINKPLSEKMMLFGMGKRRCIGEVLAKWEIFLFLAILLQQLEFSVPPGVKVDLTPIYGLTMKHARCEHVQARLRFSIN

[4] = biological target: Cytochrome P450 2C19 (Homo sapiens, UniProt P33261); test: Inhibition of CYP2C19; type: ADME
[5] = biological target: Cytochrome P450 3A4 (Homo sapiens, UniProt P08684); test: Inhibition of CYP3A4; type: ADME
[6] = biological target: T2, Cytochrome P450 2C8 (Homo sapiens, UniProt P10632); test: Inhibition of CYP2C8; type: ADME
T2 sequence (P10632 whole entry): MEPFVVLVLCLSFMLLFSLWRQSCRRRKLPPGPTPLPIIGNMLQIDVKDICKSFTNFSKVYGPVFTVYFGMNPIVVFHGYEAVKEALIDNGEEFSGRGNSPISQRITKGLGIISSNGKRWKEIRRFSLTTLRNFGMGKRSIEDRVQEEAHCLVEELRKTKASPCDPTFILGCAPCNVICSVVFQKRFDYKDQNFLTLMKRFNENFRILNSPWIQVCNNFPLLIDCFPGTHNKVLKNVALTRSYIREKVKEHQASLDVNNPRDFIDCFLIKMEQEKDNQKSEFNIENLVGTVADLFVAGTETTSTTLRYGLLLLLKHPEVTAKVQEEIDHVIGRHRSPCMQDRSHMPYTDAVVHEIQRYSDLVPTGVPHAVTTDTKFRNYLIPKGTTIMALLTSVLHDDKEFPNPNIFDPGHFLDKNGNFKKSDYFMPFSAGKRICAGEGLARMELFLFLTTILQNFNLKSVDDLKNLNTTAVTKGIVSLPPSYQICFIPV

[7] = Metabolic stability in human liver microsomes after 1 hr; type: ADME, Microsome; details: read-out: Stability
[8] = biological target: Cytochrome P450 2D6 (Homo sapiens, UniProt P10635); test: Inhibition of CYP2D6; type: ADME
[9] = biological target: T3, Cytochrome P450 2B6 (Homo sapiens, UniProt P20813); test: Inhibition of CYP2B6; type: ADME
T3 sequence (P20813 whole entry): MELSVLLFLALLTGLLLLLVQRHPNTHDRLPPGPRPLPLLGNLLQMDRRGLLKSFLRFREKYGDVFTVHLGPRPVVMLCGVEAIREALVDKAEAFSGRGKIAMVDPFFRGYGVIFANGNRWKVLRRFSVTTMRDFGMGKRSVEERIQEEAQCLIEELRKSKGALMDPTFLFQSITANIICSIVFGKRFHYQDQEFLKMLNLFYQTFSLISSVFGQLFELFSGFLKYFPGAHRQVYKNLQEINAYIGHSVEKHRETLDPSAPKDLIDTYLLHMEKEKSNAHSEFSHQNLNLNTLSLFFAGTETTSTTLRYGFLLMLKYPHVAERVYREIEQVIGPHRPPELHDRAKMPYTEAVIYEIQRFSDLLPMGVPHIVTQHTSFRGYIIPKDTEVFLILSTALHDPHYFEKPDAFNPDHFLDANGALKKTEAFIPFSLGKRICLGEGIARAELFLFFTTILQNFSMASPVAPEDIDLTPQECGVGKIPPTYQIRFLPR

Rho-associated protein kinase 1, sequence (Q13464 whole entry): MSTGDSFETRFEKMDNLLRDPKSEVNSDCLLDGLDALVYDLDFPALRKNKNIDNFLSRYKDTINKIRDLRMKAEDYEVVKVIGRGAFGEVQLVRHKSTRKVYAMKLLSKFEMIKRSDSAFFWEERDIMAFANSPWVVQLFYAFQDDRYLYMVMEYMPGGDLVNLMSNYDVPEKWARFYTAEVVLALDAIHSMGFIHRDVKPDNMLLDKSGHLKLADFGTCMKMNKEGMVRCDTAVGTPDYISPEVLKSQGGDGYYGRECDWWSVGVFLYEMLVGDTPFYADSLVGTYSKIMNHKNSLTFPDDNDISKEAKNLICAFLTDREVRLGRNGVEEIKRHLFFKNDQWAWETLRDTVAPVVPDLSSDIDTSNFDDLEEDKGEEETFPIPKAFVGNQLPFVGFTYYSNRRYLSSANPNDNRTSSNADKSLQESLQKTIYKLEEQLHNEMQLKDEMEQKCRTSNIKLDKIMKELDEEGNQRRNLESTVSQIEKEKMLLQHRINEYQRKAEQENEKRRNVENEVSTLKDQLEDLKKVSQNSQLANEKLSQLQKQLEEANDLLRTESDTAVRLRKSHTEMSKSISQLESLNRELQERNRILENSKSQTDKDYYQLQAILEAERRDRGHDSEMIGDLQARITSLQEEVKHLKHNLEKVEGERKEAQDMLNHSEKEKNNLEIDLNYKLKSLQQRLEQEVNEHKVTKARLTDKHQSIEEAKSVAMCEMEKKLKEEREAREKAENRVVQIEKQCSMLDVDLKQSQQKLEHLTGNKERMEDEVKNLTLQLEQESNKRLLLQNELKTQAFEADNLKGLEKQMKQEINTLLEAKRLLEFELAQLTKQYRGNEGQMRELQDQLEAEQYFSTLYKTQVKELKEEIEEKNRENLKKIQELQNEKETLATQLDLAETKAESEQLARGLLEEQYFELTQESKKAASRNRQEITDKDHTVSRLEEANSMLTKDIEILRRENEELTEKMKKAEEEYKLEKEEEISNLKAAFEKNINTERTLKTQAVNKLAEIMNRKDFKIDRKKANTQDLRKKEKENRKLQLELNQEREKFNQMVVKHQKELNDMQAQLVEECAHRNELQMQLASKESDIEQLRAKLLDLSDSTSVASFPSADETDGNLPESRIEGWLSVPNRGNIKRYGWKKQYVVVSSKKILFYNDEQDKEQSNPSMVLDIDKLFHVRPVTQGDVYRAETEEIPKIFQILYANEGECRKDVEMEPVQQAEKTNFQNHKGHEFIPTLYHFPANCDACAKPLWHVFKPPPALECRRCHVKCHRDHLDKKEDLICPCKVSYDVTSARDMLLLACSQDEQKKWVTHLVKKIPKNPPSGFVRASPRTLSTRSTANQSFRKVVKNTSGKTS
Rho-associated protein kinase 2, sequence (O75116 whole entry): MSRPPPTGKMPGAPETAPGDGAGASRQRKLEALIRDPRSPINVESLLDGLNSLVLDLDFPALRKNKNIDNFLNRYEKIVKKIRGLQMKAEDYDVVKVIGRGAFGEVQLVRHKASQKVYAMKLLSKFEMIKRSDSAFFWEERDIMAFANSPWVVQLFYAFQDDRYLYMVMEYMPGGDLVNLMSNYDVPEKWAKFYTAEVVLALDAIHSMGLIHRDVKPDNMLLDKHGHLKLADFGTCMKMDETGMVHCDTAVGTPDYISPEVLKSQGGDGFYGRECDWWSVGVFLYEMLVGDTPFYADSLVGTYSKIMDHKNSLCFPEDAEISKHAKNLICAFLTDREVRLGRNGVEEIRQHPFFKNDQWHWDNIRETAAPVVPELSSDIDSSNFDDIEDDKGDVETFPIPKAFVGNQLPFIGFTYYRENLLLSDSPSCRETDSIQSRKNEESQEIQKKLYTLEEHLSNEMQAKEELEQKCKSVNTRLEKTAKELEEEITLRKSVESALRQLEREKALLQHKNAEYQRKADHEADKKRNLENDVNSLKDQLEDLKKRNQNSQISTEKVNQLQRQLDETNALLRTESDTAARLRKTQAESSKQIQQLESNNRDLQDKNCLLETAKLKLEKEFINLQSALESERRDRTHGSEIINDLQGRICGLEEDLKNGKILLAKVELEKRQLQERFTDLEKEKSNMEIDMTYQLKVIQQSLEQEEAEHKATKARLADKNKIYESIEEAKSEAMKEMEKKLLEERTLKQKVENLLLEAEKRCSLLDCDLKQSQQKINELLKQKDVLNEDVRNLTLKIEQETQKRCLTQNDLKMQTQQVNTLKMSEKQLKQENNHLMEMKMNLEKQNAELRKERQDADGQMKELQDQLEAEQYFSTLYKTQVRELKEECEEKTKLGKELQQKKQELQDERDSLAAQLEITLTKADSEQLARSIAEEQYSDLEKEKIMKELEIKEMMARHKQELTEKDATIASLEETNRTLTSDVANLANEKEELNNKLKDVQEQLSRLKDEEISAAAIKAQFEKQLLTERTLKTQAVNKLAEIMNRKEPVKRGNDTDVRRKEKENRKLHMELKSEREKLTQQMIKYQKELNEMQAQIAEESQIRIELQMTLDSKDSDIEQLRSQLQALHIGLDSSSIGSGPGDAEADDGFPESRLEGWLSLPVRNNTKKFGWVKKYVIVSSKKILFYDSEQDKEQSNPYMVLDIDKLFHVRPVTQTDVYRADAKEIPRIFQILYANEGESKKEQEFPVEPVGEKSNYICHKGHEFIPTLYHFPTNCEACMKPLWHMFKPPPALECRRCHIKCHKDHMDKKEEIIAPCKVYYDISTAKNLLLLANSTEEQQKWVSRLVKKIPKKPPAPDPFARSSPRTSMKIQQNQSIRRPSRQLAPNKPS
Cytochrome P450 2C19, sequence (P33261 whole entry): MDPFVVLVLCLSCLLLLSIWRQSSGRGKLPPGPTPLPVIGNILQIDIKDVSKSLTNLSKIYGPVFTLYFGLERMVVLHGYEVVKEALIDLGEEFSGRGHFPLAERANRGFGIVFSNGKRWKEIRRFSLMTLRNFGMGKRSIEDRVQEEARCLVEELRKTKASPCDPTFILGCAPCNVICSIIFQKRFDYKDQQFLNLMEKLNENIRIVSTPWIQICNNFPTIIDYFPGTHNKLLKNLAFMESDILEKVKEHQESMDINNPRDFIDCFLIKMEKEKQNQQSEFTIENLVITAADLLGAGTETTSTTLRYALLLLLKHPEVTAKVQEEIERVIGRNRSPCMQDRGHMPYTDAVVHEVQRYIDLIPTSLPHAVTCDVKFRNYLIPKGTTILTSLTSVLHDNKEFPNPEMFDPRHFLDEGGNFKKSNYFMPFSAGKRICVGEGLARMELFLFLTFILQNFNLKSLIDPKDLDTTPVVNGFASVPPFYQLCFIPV
Cytochrome P450 2D6, sequence (P10635 whole entry): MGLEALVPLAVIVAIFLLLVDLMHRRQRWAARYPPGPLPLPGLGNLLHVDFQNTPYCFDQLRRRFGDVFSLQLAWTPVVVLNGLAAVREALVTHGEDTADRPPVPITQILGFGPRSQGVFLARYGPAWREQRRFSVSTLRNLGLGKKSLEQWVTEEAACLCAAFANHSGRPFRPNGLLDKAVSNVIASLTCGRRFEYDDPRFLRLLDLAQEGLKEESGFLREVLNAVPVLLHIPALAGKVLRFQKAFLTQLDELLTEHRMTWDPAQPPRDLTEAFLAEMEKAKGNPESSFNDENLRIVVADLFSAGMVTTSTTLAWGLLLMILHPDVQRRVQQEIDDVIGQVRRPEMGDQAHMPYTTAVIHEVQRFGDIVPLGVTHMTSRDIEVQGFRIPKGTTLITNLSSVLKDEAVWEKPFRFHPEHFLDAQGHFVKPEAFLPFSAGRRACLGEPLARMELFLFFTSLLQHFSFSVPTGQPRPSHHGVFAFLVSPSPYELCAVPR
Cytochrome P450 3A4, sequence (P08684 whole entry): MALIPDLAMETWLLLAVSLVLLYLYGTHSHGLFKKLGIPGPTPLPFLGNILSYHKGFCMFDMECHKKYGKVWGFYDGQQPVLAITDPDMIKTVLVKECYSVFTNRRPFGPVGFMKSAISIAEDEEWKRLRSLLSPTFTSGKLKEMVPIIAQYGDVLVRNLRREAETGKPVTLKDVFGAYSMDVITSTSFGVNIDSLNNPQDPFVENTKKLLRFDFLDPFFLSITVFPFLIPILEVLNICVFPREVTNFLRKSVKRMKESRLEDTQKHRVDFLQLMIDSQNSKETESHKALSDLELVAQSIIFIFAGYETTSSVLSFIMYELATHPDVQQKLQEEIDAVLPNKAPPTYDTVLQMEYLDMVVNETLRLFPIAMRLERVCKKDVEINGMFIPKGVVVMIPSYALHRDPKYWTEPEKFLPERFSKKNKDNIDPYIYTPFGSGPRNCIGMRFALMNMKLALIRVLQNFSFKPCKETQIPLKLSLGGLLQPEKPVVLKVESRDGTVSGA

IC50 [1] [nM]	IC50 [2] [nM]	Structure (SMILES)	other results
> 10000	> 10000	CN1CCCN(c2nc(-c3ccc4cn[nH]c4c3)cnc2N)CC1	–
48000	45000	COCCN(C)c1ncc(-c2ccncc2)nc1N1CCCN(C)CC1	–
25000	53000	CN1CCCN(c2nc(-c3ccnc(N)c3)cnc2N)CC1	–
6500	1700	CN1CCCN(c2nc(-c3ccncc3)cnc2N(C)C)CC1	–
1500	530	CN1CCCN(c2nc(-c3ccnc4[nH]ccc34)cnc2N)CC1	–
9600	2500	CN1CCCN(c2nc(-c3cccc4[nH]ncc34)cnc2N)CC1	–
120000	58000	Cc1cnccc1-c1cnc(N)c(N2CCCN(C)CC2)n1	–
10000	52000	COCCNc1ncc(-c2ccncc2)nc1N1CCCN(C)CC1	–
> 100000	> 100000	Cc1cc(-c2cnc(N)c(N3CCCN(C)CC3)n2)ccn1	–
6900	2400	CNc1ncc(-c2ccncc2)nc1N1CCCN(C)CC1	–
2600	6700	CCN(CC)c1ncc(-c2ccncc2)nc1N1CCCN(C)CC1	–
2300	950	CN1CCCN(c2nc(-c3ccc4[nH]ncc4c3)cnc2N)CC1	–
42000	3000	CN1CCCN(c2nc(-c3ccncc3)cnc2NCCO)CC1	–
37000	2900	CN1CCCN(c2nc(-c3cc[nH]n3)cnc2N)CC1	–
4600	2500	CN1CCCN(c2nc(-c3ccncc3)cnc2N)CC1	–
4600	2500	Nc1ncc(-c2ccncc2)nc1N1CCN(CCO)CC1	–

The remaining lines, values behind:

Structure (SMILES)	IC50 [1] [nM]	IC50 [2] [nM]	other results
c1cc(-c2cnc(N3CCCC3)c(N3CCNCC3)n2)ccn1	610	62	–
c1cc(-c2cnc(N3CCCC3)c(N3CCNCC3)n2)c2cc[nH]c2n1	34	17	–
CNC1CCN(c2nc(-c3ccncc3)cnc2N2CCCC2)CC1	1800	250	–
c1cc(-c2cnc(N3CCCC3)c(N3CCCNCC3)n2)ccn1	320	39	–
CNCC1CCN(c2nc(-c3ccncc3)cnc2N2CCCC2)CC1	150	49	–
NC1CCN(c2nc(-c3ccnc4[nH]ccc34)cnc2N2CCCC2)CC1	300	89	–
CN1CCCN(c2nc(-c3ccncc3)cnc2N2CCOCC2)CC1	68000	6300	–
NCC1CCN(c2nc(-c3ccncc3)cnc2N2CCCC2)CC1	130	28	–
CN1CCCN(c2nc(-c3ccncc3)cnc2N2CCCC2)CC1	6000	330	–
OCCN1CCN(c2nc(-c3ccncc3)cnc2N2CCCC2)CC1	300	78	Activity [3]: > 2 µM; Activity [4]: > 2 µM; Activity [5]: > 2 µM; Activity [6]: > 2 µM; remaining at 1 h [7]: 100%; Activity [8]: > 2 µM; Activity [9]: > 2 µM
CN(C)c1ncc(-c2ccncc2)nc1N1CCN(CCO)CC1	1400	300	–
c1cc(-c2cnc(N3CCCC3)c(N3CCCNCC3)n2)c2cc[nH]c2n1	170	–	–
CN1CCCN(c2nc(-c3ccncc3)cnc2N2CCCCC2)CC1	18000	560	–
NC1CCN(c2nc(-c3ccncc3)cnc2N2CCCC2)CC1	290	62	–
